Patent US11202748B2, “Photoprotective compositions containing malassezia-derived compounds and/or chemical analogs thereof” (Versicolor Technologies, LLC, priority 2018, dated 2021)

Key:
[1] = target: arylhydrocarbon receptor (AhR) (Homo sapiens, UniProt P35869); details: expected result
Description: Cultivated cells are rinsed with 5 mL PBS. […] Trypsin is inactivated by adding excess serum-containing media.
Cells are resuspended in seeding media at a proper density.
Compound solutions are transferred into the assay plate using Echo550. The plate is then placed back into the incubator for compound treatment.
Afterward, stock solutions of test compounds, test compositions, and omeprazole positive control are prepared. Compound and compositions solutions are transferred into the assay plate using Echo550. The plate is then placed back into the incubator for compound/composition treatment.

[2] = tested on: MeWo, WM115 and B16F1 cell lines; details: expected result
Description: The cell lines MeWo (ATCC® HTB-65™), WM115 (ATCC® CRL-1675) and B16F1 (ATCC® CRL-6323) are maintained in the following culture media: culture medium for MeWo and B16F1: DMEM supplemented with 10% FBS; culture medium for WM115: RPMI 1640 supplemented with 10% FBS.
Cells are harvested and the cell number determined using a Countess Cell Counter. The cells are diluted with culture medium to the desired density. The final cell density may be, for example, 4,000 cells/well for 6 hr and 24 hr treatment, and 2,000 cells/well for 48 hr and 72 hr treatment. For the Annexin V assay, 384-well clear-bottom plates (Corning 3712) are employed, whereas 384-well solid white-bottom plates (Corning 3570) are used for the Caspase-Glo assays. All plates are covered with a lid and placed at 37° C. and 5% CO2 overnight for cell attachment.
Test compounds are dissolved in DMSO to 30 mM stock. 10-fold dilutions are performed to generate 3 mM and 0.3 mM concentrations. […]
For the Annexin V assay, plates are removed from the incubator and culture media is removed. […] Plates are read using ImageXpress Nano.
For the Caspase-Glo assay, plates are removed from the incubator and equilibrated at room temperature for 15 minutes. […] Plates are incubated at room temperature for 15 minutes and read using EnSpire™ plate reader. Fold induction is calculated according to the following formula: Fold induction=LumSample/LumNC.

[3] = expected result
Description: For the CellTiter-Glo assay, test compounds are prepared in 10 mM DMSO solution. Compounds are serially diluted into 12 concentrations. 40 uL of cells from a 100,000 cell/mL suspension are dispensed into each well of a 384-well plate (Corning 3570). Plates are incubated overnight at 37° C., 5% CO2, and 95% humidity. Test compounds are added, with DMSO as vehicle control. Plates are incubated at 37° C., 5% CO2, and 95% humidity for 6, 24, or 48 hours, and 40 uL of CellTiter-Glo reagent is added to the wells to assess cell viability.

[4] = tested on: B16 melanocytes; details: expected result
Description: Plating media will include DMEM without L-glutamine, FBS, penicillin/streptomycin, and L-glutamine. Assay media will include DMEM without phenol red and L-glutamine, FBS, penicillin/streptomycin, L-glutamine, and aMSH. Other reagents will include Kojic Acid, DMSO, and MTT. Cells tested will be B16 cells (ATCC CRL-6475).
B16 Melanocytes are cultured until 70% confluent and harvested. Cells are seeded in 96-well plates at a density of 4000 cells/well and are allowed to attach overnight. The following day, test articles and controls are diluted in B16 Assay media. Overnight media is aspirated and 200 ul of test articles and controls are applied. Cells are incubated at 37° C. and 10% CO2 for 72 hours. Following 72-hour incubation, absorbance is read at 540 nm. Media is removed and replaced with 100 ul of plating media containing 1 mg/mL MTT and incubated for 2 hours at 37° C. and 10% CO2. MTT media is removed and replaced with 200 ul of 95% Ethanol/5% Isopropanol and allowed to shake for 15 minutes. MTT absorbance then is read at 570 nm.
B16 Melanocytes are cultured until 70% confluent and harvested. Cells are seeded in 96-well plates at a density of 4000 cells/well and are allowed to attach overnight. The following day, test articles, test compositions, and controls are diluted in B16 Assay media. […] Following 72-hour incubation, absorbance is read at 540 nm. […] MTT absorbance then is read at 570 nm.

[5] = tested on: arylhydrocarbon receptor (AhR); details: cited from earlier work

Chain of arylhydrocarbon receptor (AhR) (Homo sapiens, UniProt P35869) (P35869 11-848): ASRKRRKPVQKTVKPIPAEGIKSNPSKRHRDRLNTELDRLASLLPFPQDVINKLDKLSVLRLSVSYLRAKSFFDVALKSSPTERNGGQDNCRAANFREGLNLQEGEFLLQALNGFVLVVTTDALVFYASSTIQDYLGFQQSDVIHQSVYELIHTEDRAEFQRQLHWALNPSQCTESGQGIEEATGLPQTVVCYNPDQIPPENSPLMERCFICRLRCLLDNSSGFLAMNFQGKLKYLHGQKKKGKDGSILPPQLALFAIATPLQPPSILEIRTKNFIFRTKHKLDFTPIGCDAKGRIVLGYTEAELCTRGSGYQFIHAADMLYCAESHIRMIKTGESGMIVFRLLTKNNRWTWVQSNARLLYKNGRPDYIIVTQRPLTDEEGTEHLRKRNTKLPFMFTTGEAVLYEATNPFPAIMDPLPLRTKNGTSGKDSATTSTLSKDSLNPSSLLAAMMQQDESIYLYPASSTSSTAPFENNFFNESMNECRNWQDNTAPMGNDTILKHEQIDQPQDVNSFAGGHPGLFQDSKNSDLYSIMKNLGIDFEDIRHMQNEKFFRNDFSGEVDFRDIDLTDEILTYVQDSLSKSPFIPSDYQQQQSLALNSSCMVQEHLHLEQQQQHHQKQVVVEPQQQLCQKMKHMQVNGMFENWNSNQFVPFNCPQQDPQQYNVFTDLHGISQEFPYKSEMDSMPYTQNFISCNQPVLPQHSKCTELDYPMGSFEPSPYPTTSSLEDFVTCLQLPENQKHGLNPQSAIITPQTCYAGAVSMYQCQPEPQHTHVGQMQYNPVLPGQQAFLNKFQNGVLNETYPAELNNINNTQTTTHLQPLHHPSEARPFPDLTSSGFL

## O=C1Nc2ccccc2/C1=C1/Nc2ccccc2C1=O [Indirubin]
[1]
  AhR activity modulation: will modulate AhR activity
[2]
  cell death / apoptosis induction: will induce cell death
[3]
  cell death (cell viability): will induce cell death
[4]
  melanogenesis inhibition: will inhibit melanogenesis
[5]
  AhR agonist activity: known agonist

## O=Cc1c(Cc2c[nH]c3ccccc23)[nH]c2ccccc12 [Malassezin, 2-(1H-indol-3-ylmethyl)-1H-indole-3-carbaldehyde]
[5]
  AhR agonist activity: known agonist
